13 compounds from ChEMBL document CHEMBL1201862, “PubChem BioAssay data set” (2004) can be followed below.

Some test systems named below: OVCAR-3; SF-268; SF-295; UO-31; NCI-H522; KM12; NCI-H23; HCT-15; SNB-75; OVCAR-5; Malme-3M; OVCAR-8; NCI-H460; SK-MEL-28; RPMI-8226; U-251.
Test in all cases: NCI anticancer screen, dose series, 48 h

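Test compounds were applied to cells in 96-well plates for 48 hours at 5 doses. GI50 marks 50% less growth.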 Calls of active or inactive are those of the source. Rule as the data show it: active = GI50 up to about 1.1 µM and inactive = higher.

As for `N=c1oc2cc(O)c(O)cc2cc1C(N)=O`, the GI50 is > 100 µM (inactive) in the assay on OVCAR-3; 81.3 µM (inactive) with SF-268; > 100 µM (inactive) with SF-295; > 100 µM (inactive) in the assay with UO-31; 45.1 µM (inactive) with NCI-H522; > 100 µM (inactive) with KM12. In addition, the GI50 in the assay with NCI-H23 was > 100 µM (inactive); in the assay on HCT-15, over 100 µM; in the assay with SNB-75 it was 25 µM (inactive); in the assay on OVCAR-5 it was > 100 µM (inactive); in the assay with Malme-3M, > 100 µM (inactive); with OVCAR-8, > 100 µM (inactive). For the same compound, the GI50 in the assay on NCI-H460, in the assay with SK-MEL-28, in the assay on RPMI-8226 and in the assay with U-251 was > 100 µM (inactive) in each case.

For `O=C(/C=C/c1ccccc1O)c1cccs1`, the GI50 with OVCAR-3, in the assay with SF-268, with SF-295, in the assay with UO-31, in the assay on NCI-H522 and in the assay on KM12 was > 100 µM (inactive) in each case. Further, the GI50 in the assay on NCI-H23 is > 100 µM (inactive); in the assay on HCT-15 it was over 100 µM; in the assay with SNB-75 it was > 100 µM (inactive); in the assay with OVCAR-5, > 100 µM (inactive); in the assay on Malme-3M, > 100 µM (inactive); with OVCAR-8 it was > 100 µM (inactive). Moreover, the GI50 in the assay with NCI-H460, in the assay with SK-MEL-28 and in the assay on U-251 was > 100 µM (inactive) throughout.

For the compound `COc1ccc(C)cc1C1CCC(=O)O1` (stereo not given), the GI50 with OVCAR-3, in the assay on SF-295, with UO-31, with NCI-H522, in the assay with KM12 and in the assay with NCI-H23 was > 100 µM (inactive) throughout. Further, the GI50 was over 100 µM with HCT-15; > 100 µM (inactive) in the assay with SNB-75; > 100 µM (inactive) with OVCAR-5; > 100 µM (inactive) in the assay on Malme-3M; > 100 µM (inactive) in the assay with OVCAR-8; > 100 µM (inactive) with NCI-H460. The GI50 in the assay with SK-MEL-28, with RPMI-8226 and in the assay on U-251 was > 100 µM (inactive) each time.

With `O=C1C(=O)N(c2cc(Cl)ccc2Cl)C(=O)C(=O)C1c1nc2ccccc2o1`, the GI50 in the assay with OVCAR-3 was > 67.5 µM (inactive); in the assay with SF-268 it was > 100 µM (inactive); with SF-295, > 100 µM (inactive); in the assay on UO-31 it was > 70.8 µM (inactive); with NCI-H522, 90.6 µM (inactive); with KM12, > 31.6 µM (inactive). Also, the GI50 with NCI-H23 was > 100 µM (inactive); in the assay with HCT-15, over 100 µM; in the assay on SNB-75 it was > 67.6 µM (inactive); in the assay with OVCAR-5 it was > 100 µM (inactive); in the assay with Malme-3M it was > 100 µM (inactive); with OVCAR-8, > 100 µM (inactive). Moreover, the GI50 with NCI-H460, in the assay with SK-MEL-28, with RPMI-8226 and with U-251 was > 100 µM (inactive) in each case.

Regarding `CC1NOC(=O)C1/N=N/c1ccccc1Cl` (stereo not given), the GI50 in the assay with OVCAR-3 was 33.8 µM (inactive); in the assay on SF-268, 35.1 µM (inactive); in the assay on SF-295 it was 74.1 µM (inactive); in the assay on UO-31 it was 13.9 µM (inactive); with NCI-H522 it was 17.4 µM (inactive); in the assay with KM12, 64.7 µM (inactive). Also, the GI50 was 29.9 µM (inactive) in the assay with NCI-H23; 21.2 µM (inactive) in the assay on SNB-75; 34.8 µM (inactive) in the assay on OVCAR-5; 25.5 µM (inactive) in the assay on Malme-3M; > 100 µM (inactive) in the assay on OVCAR-8; 45.1 µM (inactive) in the assay on NCI-H460. The GI50 is 32.7 µM (inactive) in the assay with SK-MEL-28, 20.4 µM (inactive) with RPMI-8226 and 42.4 µM (inactive) in the assay on U-251.

As for `COc1cccc(-c2nccc3c(OCc4ccccc4)c(OC)c(OC)cc23)c1`, the GI50 with OVCAR-3 was > 100 µM (inactive); in the assay on SF-268, > 100 µM (inactive); in the assay with SF-295, > 100 µM (inactive); with UO-31, 7.29 µM (inactive); with NCI-H522, > 100 µM (inactive); in the assay with KM12, > 100 µM (inactive). Moreover, the GI50 with NCI-H23 is 4.09 µM (inactive); in the assay on HCT-15 it was 4.72 µM; in the assay on SNB-75, > 100 µM (inactive); in the assay with OVCAR-5, > 100 µM (inactive); in the assay on Malme-3M, 2.94 µM (inactive); in the assay on OVCAR-8, > 100 µM (inactive). The results for the GI50 with RPMI-8226 and with U-251 were 7.08 µM (inactive) and 6.46 µM (inactive), respectively.

Consider `Oc1cccc2nc3cc(CN4CCOCC4)c(CN4CCOCC4)cc3nc12`, for which the GI50 in the assay with OVCAR-3 is 42.2 µM (inactive); in the assay on SF-268 it was 48.2 µM (inactive); with SF-295, 45.8 µM (inactive); in the assay with UO-31 it was 29.6 µM (inactive); with NCI-H522, 30.9 µM (inactive); in the assay with KM12, 67 µM (inactive). For the same compound, the GI50 is > 100 µM (inactive) in the assay on NCI-H23; 37.4 µM in the assay with HCT-15; > 100 µM (inactive) in the assay with SNB-75; 43.8 µM (inactive) in the assay with OVCAR-5; 57.5 µM (inactive) in the assay on Malme-3M; 44.7 µM (inactive) with OVCAR-8. Moreover, the GI50 in the assay on NCI-H460 was 54.3 µM (inactive); in the assay with SK-MEL-28 it was > 100 µM (inactive); with U-251 it was 33.6 µM (inactive).

On to `CN(C)/C(=N\C#N)N(Cc1ccccc1)Cc1ccccc1`, for which the GI50 was > 100 µM (inactive) in the assay on OVCAR-3; 98.2 µM (inactive) in the assay on SF-268; 68.4 µM (inactive) in the assay with SF-295; 80.5 µM (inactive) with UO-31; 24.9 µM (inactive) with NCI-H522; > 100 µM (inactive) in the assay on KM12. The GI50 was > 100 µM (inactive) with NCI-H23; 16.6 µM with HCT-15; > 100 µM (inactive) with SNB-75; > 100 µM (inactive) in the assay with OVCAR-5; > 100 µM (inactive) in the assay on Malme-3M; 87.3 µM (inactive) with OVCAR-8. The GI50 with NCI-H460 is 17.7 µM (inactive); in the assay with SK-MEL-28, > 100 µM (inactive); in the assay with RPMI-8226, 32.5 µM (inactive); in the assay with U-251, > 100 µM (inactive).

On to `Cc1nc(N)nn1C1OCC(O)C(O)C1O` (stereo not given), for which the GI50 with OVCAR-3, in the assay on SF-268, in the assay on SF-295, in the assay with UO-31, in the assay on NCI-H522 and in the assay on KM12 was > 100 µM (inactive) each time. The GI50 with NCI-H23 is > 100 µM (inactive); in the assay on HCT-15 it was over 100 µM; in the assay on SNB-75 it was 93.5 µM (inactive); in the assay with Malme-3M, > 100 µM (inactive); in the assay with OVCAR-8 it was > 100 µM (inactive); in the assay with NCI-H460 it was > 100 µM (inactive). For the same compound, the GI50 in the assay with SK-MEL-28, in the assay with RPMI-8226 and in the assay on U-251 was > 100 µM (inactive) in each case.

On to `COc1cc2ccc3c4c(OC)cc(OC)c(OC)c4c([O-])[n+](C)c3c2cc1OC`, for which the GI50 with OVCAR-3 was 7.13 µM (inactive); in the assay on SF-268, 3.46 µM (inactive); in the assay on SF-295, 4.47 µM (inactive); in the assay with UO-31 it was > 34 µM (inactive); with NCI-H522, 2.55 µM (inactive); with KM12, 4.37 µM (inactive). In addition, the GI50 in the assay with NCI-H23 is 10.1 µM (inactive); in the assay on SNB-75, 11.8 µM (inactive); in the assay on OVCAR-5 it was 11.1 µM (inactive); in the assay with Malme-3M it was 17.5 µM (inactive); in the assay on OVCAR-8 it was 45.3 µM (inactive); with SK-MEL-28, 30.3 µM (inactive). Moreover, the GI50 with RPMI-8226 was 0.368 µM (active); in the assay on U-251, 1.39 µM (inactive).

For `COCC1N=C(c2ccc(OC)c(OCc3ccccc3)c2OC)O[C@H]1c1ccccc1` (stereo not given in full), the GI50 with OVCAR-3 was 16 µM (inactive); in the assay with SF-268 it was 25.8 µM (inactive); in the assay on SF-295 it was 25.6 µM (inactive); in the assay on UO-31, 4.89 µM (inactive); in the assay with NCI-H522 it was 20.8 µM (inactive); with KM12, 21.2 µM (inactive). The GI50 in the assay on NCI-H23 is 17.7 µM (inactive); with HCT-15 it was 17.5 µM; with SNB-75, 25.3 µM (inactive); with OVCAR-5 it was 25 µM (inactive); with OVCAR-8, 23.1 µM (inactive); in the assay with NCI-H460, 11.1 µM (inactive). Also, the GI50 in the assay on SK-MEL-28 is 20.7 µM (inactive); with RPMI-8226, 5.65 µM (inactive); in the assay with U-251 it was 18.1 µM (inactive).

`O=C(O)C1Cc2[nH]c3ccccc3c2C2CCCC12` (stereo not given): the GI50 with OVCAR-3, with SF-268, with SF-295, in the assay with UO-31, with NCI-H522 and in the assay with KM12 was > 100 µM (inactive) in each case. For the same compound, the GI50 in the assay on NCI-H23 is > 100 µM (inactive); with HCT-15, over 100 µM; with SNB-75, 46.3 µM (inactive); with OVCAR-5, > 100 µM (inactive); in the assay with Malme-3M, > 100 µM (inactive); in the assay with OVCAR-8, > 100 µM (inactive). Also, the GI50 in the assay with NCI-H460, in the assay with SK-MEL-28 and in the assay with U-251 was > 100 µM (inactive) throughout.

Regarding `C1=CC(=NN=P(c2ccccc2)(c2ccccc2)c2ccccc2)C=C1`, the GI50 in the assay with OVCAR-3 is > 100 µM (inactive); in the assay with SF-268, > 100 µM (inactive); in the assay on UO-31, > 100 µM (inactive); in the assay with NCI-H522, 88.5 µM (inactive); in the assay on KM12, > 100 µM (inactive); in the assay with NCI-H23, > 100 µM (inactive). Besides, the GI50 in the assay with HCT-15 is over 100 µM; with SNB-75 it was > 100 µM (inactive); with OVCAR-5, > 100 µM (inactive); in the assay on Malme-3M, > 100 µM (inactive); in the assay on OVCAR-8, > 100 µM (inactive); in the assay on NCI-H460 it was > 100 µM (inactive). The GI50 in the assay with SK-MEL-28 and in the assay on RPMI-8226 was > 100 µM (inactive) throughout.
